Bounds are passed on as bounds.

The target of the assay is T1, GlyT1 (Homo sapiens, UniProt P48067).
T1 construct: expressed in transfected cells
T1 sequence (P48067 1-706): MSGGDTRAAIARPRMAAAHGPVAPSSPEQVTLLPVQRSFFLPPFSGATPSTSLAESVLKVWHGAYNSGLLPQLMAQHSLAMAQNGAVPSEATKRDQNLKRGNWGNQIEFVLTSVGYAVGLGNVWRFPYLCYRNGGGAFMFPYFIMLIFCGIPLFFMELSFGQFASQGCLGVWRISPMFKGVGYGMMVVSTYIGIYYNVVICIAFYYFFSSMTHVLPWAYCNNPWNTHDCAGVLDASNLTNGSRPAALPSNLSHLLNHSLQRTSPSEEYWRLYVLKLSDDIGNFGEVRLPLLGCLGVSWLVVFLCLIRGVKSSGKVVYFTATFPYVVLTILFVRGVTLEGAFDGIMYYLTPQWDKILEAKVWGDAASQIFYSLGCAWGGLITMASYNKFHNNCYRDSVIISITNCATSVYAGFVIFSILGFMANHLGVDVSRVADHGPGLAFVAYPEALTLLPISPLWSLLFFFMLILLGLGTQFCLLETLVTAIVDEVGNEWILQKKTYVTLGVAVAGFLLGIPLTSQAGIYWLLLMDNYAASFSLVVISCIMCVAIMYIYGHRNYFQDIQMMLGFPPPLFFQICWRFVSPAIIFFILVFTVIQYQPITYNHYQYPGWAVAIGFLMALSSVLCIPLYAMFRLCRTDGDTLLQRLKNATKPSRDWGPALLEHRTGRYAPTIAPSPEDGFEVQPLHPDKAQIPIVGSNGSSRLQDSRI
As to the kind of experiment: Glycine Transporter 1 (GlyT1) uptake assay, scintillation proximity assay of [14C]-glycine uptake. The format is cell-based. As to conditions: SPA, four parameter logistic fit, read-out: GlyT1 (pIC50) (converted). An outline of the steps:
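[14C]-glycine uptake read by scintillation proximity on a plate counter. IC50 from four-parameter logistic fit of dose-response data.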
A general note: SPA uses beads or plates that emit light when radiolabelled molecules are held near them.
As for `CC(C)Oc1ccc(C#N)cc1C(=O)N1Cc2cn(-c3ccnc(C#N)c3)nc2C1` [Example 468, 4-{5-[5-Cyano-2-(propan-2-yloxy)benzoyl]-2H 4H 5H 6H-pyrrolo[3,4-c]pyrazol-2-yl}pyridine-2-carbonitrile], the IC50 is 100 to 1000 nM.

As to `CS(=O)(=O)c1ccc(-c2cccc(F)c2)c(C(=O)N2Cc3cn(C4CCC(F)(F)CC4)nc3C2)c1` [Example 469, 2-(4 4-Difluorocyclohexyl)-5-[2-(3-fluorophenyl)-5-methanesulfonylbenzoyl]-2H 4H 5H 6H-pyrrolo[3,4-c]pyrazole], the IC50 was below 100 nM.

On to `CC(C)Oc1ccc(S(C)(=O)=O)cc1C(=O)N1Cc2cn(C3CCC(F)(F)CC3)nc2C1` [Example 470, 2-(4 4-Difluorocyclohexyl)-5-[5-methanesulfonyl-2-(propan-2-yloxy)benzoyl]-2H 4H 5H 6H-pyrrolo[3,4-c]pyrazole], for which the IC50 is below 100 nM. As for `C[C@H](Oc1ccc(S(C)(=O)=O)cc1C(=O)N1Cc2cn(C3CCC(F)(F)CC3)nc2C1)C(F)(F)F` [Example 471, 2-(4 4-Difluorocyclohexyl)-5-(5-methanesulfonyl-2-{[(2S)-1 1 1-trifluoropropan-2-yl]oxy}benzoyl)-2H 4H 5H 6H-pyrrolo[3,4-c]pyrazole], the IC50 was below 100 nM. With `C[C@H](Oc1ccc(C#N)cc1C(=O)N1Cc2cn(C3CCC(F)(F)CC3)nc2C1)C(F)(F)F` [Example 472, 3-[2-(4 4-Difluorocyclohexyl)-2H 4H 5H 6H-pyrrolo[3,4-c]pyrazole-5-carbonyl]-4-{[(2S)-1 1 1-trifluoropropan-2-yl]oxy}benzonitrile], the IC50 was 100 to 1000 nM. Then `COc1c(C#N)ccc(OC(C)C(F)(F)F)c1C(=O)N1CCc2nn(-c3ccc(F)cc3)c(C)c2C1` (stereo not shown) [Example 473, 3-[2-(4-Fluorophenyl)-3-methyl-2H 4H 5H 6H 7H-pyrazolo[4,3-c]pyridine-5-carbonyl]-2-methoxy-4-[(1 1 1-trifluoropropan-2-yl)oxy]benzonitrile], with above 10000 nM; and `COc1c(C#N)ccc(OC(C)C(F)(F)F)c1C(=O)N1Cc2cnn(-c3ccc(F)cc3)c2C(C)(C)C1` (stereo not shown) [Example 474, 3-[1-(4-Fluorophenyl)-7 7-dimethyl-1H 4H 5H 6H 7H-pyrazolo[4,3-c]pyridine-5-carbonyl]-2-methoxy-4-[(1 1 1-trifluoropropan-2-yl)oxy]benzonitrile], with 1000 to 10000 nM; and `COc1c(C#N)ccc(OCC2(C)CC2)c1C(=O)N1CCc2nn(-c3ccc(F)cc3)cc2C1` [Example 475, 3-[2-(4-Fluorophenyl)-2H 4H 5H 6H 7H-pyrazolo[4,3-c]pyridine-5-carbonyl]-2-methoxy-4-[(1-methylcyclopropyl)methoxy]benzonitrile], with above 10000 nM. Next, `COc1c(C#N)ccc(OCC2(C(F)(F)F)CC2)c1C(=O)N1CCc2nn(-c3ccc(F)cc3)cc2C1` [Example 476, 3-[2-(4-Fluorophenyl)-2H 4H 5H 6H 7H-pyrazolo[4,3-c]pyridine-5-carbonyl]-2-methoxy-4-{[1-(trifluoromethyl)cyclopropyl]methoxy}benzonitrile]: 1000 to 10000 nM; `CC(C)(Oc1ccc(S(C)(=O)=O)cc1C(=O)N1Cc2cn(-c3ccc(F)cc3)nc2C1)C(F)(F)F` [Example 477, 2-(4-Fluorophenyl)-5-{5-methanesulfonyl-2-[(1 1 1-trifluoro-2-methylpropan-2-yl)oxy]benzoyl}-2H 4H 5H 6H-pyrrolo[3,4-c]pyrazole]: above 10000 nM. Take `CNC(=O)c1ccc(OC(C)C(F)(F)F)c(C(=O)N2CCc3nn(-c4ccc(F)cc4)cc3C2)c1Cl` (stereo not shown) [Example 478, 2-Chloro-3-[2-(4-fluorophenyl)-2H 4H 5H 6H 7H-pyrazolo[4,3-c]pyridine-5-carbonyl]-N-methyl-4-[(1 1 1-trifluoropropan-2-yl)oxy]benzamide]: the IC50 was below 100 nM. For `COc1c(C(=O)N2CCC2)ccc(OC(C)C(F)(F)F)c1C(=O)N1CCc2nn(-c3ccc(F)cc3)cc2C1` (stereo not shown) [Example 479, 1-{3-[2-(4-Fluorophenyl)-2H 4H 5H 6H 7H-pyrazolo[4,3-c]pyridine-5-carbonyl]-2-methoxy-4-[(1 1 1-trifluoropropan-2-yl)oxy]benzoyl}azetidine], the IC50 was below 100 nM. For `CNC(=O)c1ccc(OC(C)C(F)(F)F)c(C(=O)N2CCc3nn(-c4ccc(F)cc4)cc3C2)c1OC` (stereo not shown) [Example 480, 3-[2-(4-Fluorophenyl)-2H 4H 5H 6H 7H-pyrazolo[4,3-c]pyridine-5-carbonyl]-2-methoxy-N-methyl-4-[(1 1 1-trifluoropropan-2-yl)oxy]benzamide], the IC50 was 100 to 1000 nM. In the case of `CC(Oc1ccc(C(=O)N2CCC2)cc1C(=O)N1CCc2nn(-c3ccc(F)cc3)cc2C1)C(F)(F)F` (stereo not shown) [Example 481, 1-{3-[2-(4-Fluorophenyl)-2H 4H 5H 6H 7H-pyrazolo[4,3-c]pyridine-5-carbonyl]-4-[(1 1 1-trifluoropropan-2-yl)oxy]benzoyl}azetidine], the IC50 is above 10000 nM.

Turning to `CNC(=O)c1ccc(OC(C)C(F)(F)F)c(C(=O)N2CCc3nn(-c4ccc(F)cc4)cc3C2)c1` (stereo not shown) [Example 482, 3-[2-(4-Fluorophenyl)-2H 4H 5H 6H 7H-pyrazolo[4,3-c]pyridine-5-carbonyl]-N-methyl-4-[(1 1 1-trifluoropropan-2-yl)oxy]benzamide], the IC50 is 100 to 1000 nM. Consider `COc1c(C(N)=O)ccc(OC(C)C(F)(F)F)c1C(=O)N1CCc2nn(-c3ccc(F)cc3)cc2C1` (stereo not shown) [Example 483, 3-[2-(4-Fluorophenyl)-2H 4H 5H 6H 7H-pyrazolo[4,3-c]pyridine-5-carbonyl]-2-methoxy-4-[(1 1 1-trifluoropropan-2-yl)oxy]benzamide], for which the IC50 was 1000 to 10000 nM. As to `CC(Oc1ccc(C(N)=O)c(Cl)c1C(=O)N1Cc2cn(-c3ccc(F)cc3)nc2C1)C(F)(F)F` (stereo not shown) [Example 484, 2-Chloro-3-[2-(4-fluorophenyl)-2H 4H 5H 6H-pyrrolo[3,4-c]pyrazole-5-carbonyl]-4-[(1 1 1-trifluoropropan-2-yl)oxy]benzamide], the IC50 is below 100 nM. Next, `COc1c(C#N)ccc(C2CCCC2)c1C(=O)N1CCc2nn(-c3ccccc3)cc2C1` [Example 485]: below 100 nM; `COc1c(C#N)ccc(C2CCCC2)c1C(=O)N1CCc2nn(-c3ccc(F)cc3)cc2C1` [Example 486, 4-Cyclopentyl-3-[2-(4-fluorophenyl)-2H 4H 5H 6H 7H-pyrazolo[4,3-c]pyridine-5-carbonyl]-2-methoxybenzonitrile]: below 100 nM; `COc1c(C#N)ccc(C2(F)COC2)c1C(=O)N1CCc2nn(-c3ccccc3)cc2C1` [Example 487]: 1000 to 10000 nM. Turning to `COc1c(C#N)ccc(C2CCC2)c1C(=O)N1CCc2nn(-c3ccccc3)cc2C1` [Example 488, 4-Cyclobutyl-2-methoxy-3-{2-phenyl-2H 4H 5H 6H 7H-pyrazolo[4,3-c]pyridine-5-carbonyl}benzonitrile], the IC50 was 100 to 1000 nM. In the case of `COc1c(C#N)ccc(C2(F)CCC2)c1C(=O)N1CCc2nn(-c3ccc(F)cc3)cc2C1` [Example 489, 4-(1-Fluorocyclobutyl)-3-[2-(4-fluorophenyl)-2H 4H 5H 6H 7H-pyrazolo[4,3-c]pyridine-5-carbonyl]-2-methoxybenzonitrile], the IC50 is 100 to 1000 nM. Take `COc1c(C#N)ccc(C2(F)CCCC2)c1C(=O)N1CCc2nn(-c3ccccc3)cc2C1` [Example 490, 4-(1-Fluorocyclopentyl)-2-methoxy-3-{2-phenyl-2H 4H 5H 6H 7H-pyrazolo[4,3-c]pyridine-5-carbonyl}benzonitrile]: the IC50 was below 100 nM.

Turning to `COc1c(C#N)ccc(C2(F)CCCC2)c1C(=O)N1CCc2nn(-c3ccc(F)cc3)cc2C1` [Example 491, 4-(1-Fluorocyclopentyl)-3-[2-(4-fluorophenyl)-2H 4H 5H 6H 7H-pyrazolo[4,3-c]pyridine-5-carbonyl]-2-methoxybenzonitrile], the IC50 is below 100 nM. Then `COc1c(C#N)ccc(C2(F)CCOCC2)c1C(=O)N1CCc2nn(-c3ccc(F)cc3)cc2C1` [Example 492], with 100 to 1000 nM; and `COc1c(C#N)ccc(C2(OC)CCC2)c1C(=O)N1CCc2nn(-c3ccc(F)cc3)cc2C1` [Example 493, 3-[2-(4-Fluorophenyl)-2H 4H 5H 6H 7H-pyrazolo[4,3-c]pyridine-5-carbonyl]-2-methoxy-4-(1-methoxycyclobutyl)benzonitrile], with 1000 to 10000 nM; and `COc1c(C#N)ccc(C2CCCC2)c1C(=O)N1Cc2cn(-c3ccc(F)cc3)nc2C1` [Example 494, 4-Cyclopentyl-3-[2-(4-fluorophenyl)-2H 4H 5H 6H-pyrrolo[3,4-c]pyrazole-5-carbonyl]-2-methoxybenzonitrile], with below 100 nM.

Turning to `COc1c(C#N)ccc(C2CCCC2)c1C(=O)N1Cc2cn(-c3cncc(F)c3)nc2C1` [Example 495, 4-Cyclopentyl-3-[2-(5-fluoropyridin-3-yl)-2H 4H 5H 6H-pyrrolo[3,4-c]pyrazole-5-carbonyl]-2-methoxybenzonitrile], the IC50 was below 100 nM.
